Results published in patent US4652575A, “2-(ethylene-thio methyl furanyl)amino thiazole derivatives having acid secretion inhibiting activity” (Medosan Industrie Biochimiche Riunite S.p.A., priority 1984, dated 1987).
Like-named read-outs stand apart in the source and are kept apart here.

Legend:
[1] = molecular target: T1, histamine H2 receptors (Cavia porcellus, UniProt P47747); assay: Antagonistic activity to the histamine H2 receptors "in vitro" on insulated atrium auricolas of Guinea pig heart; details: for inhibition at 10 µM / inhibition at 1 µM / inhibition at 0.1 µM / inhibition at 0.01 µM: guinea pig, 0.5 h, read-out: Antagonizing activity to histamine H2 receptors; for inhibition at 10 µM: compound 1·10^-5 M/L; for inhibition at 1 µM: compound 1·10^-6 M/L; for inhibition at 0.1 µM: compound 1·10^-7 M/L; for inhibition at 0.01 µM: compound 1·10^-8 M/L
T1 construct: tests on insulated atrium auricolas of Guinea pig heart; from tissue; host or cells: isolated guinea pig heart atrium
Experimental: (§1) The preparations were a solution of the substances in 2.5% citric acid for the "in vitro" test and 5% citric acid for the "in vivo" test respectively. Citric acid was diluted in normal physiologic saline at neutral pH.
This activity was evaluated "in vitro" by carrying out tests on insulated atrium auricolas of Guinea pig heart. […] Metering was carried out by placing the preparation into a vessel containing a Ringer-Locke solution wherein pure oxygen was bubbling, at a temperature of 37° C. A response of the organ "in vitro" was first established at cumulative histamine doses of 2.5.10^-7, 5.10^-7, 10^-6, 5.10^-6, 10^-5 M/L. After obtaining two constant lines with histamine at a time interval of one hour from one another, the substances under test were added to the bath and after a 30 minutes contact with the preparation, a new histamine response line in the presence of the substance under test was drawn. The activity was tested at various concentrations of the new compounds (10^-5, 10^-6, 10^-7 and in one case 10^-8 M/L).

[2] = tested on: gastric secretion; assay: Activity on gastric secretion "in vivo" (volume and total acidity of gastric juice after pylorus tieing, Shay); set-up: species or system male Wistar rats; details: for Total acidity gastric juice secretion / Volume gastric juice secretion / change in vivo at 20 mg/kg: 20 mg/kg oral
Experimental: as §1
The ability of the compounds according to the present invention to inhibit the gastric secretion was studied "in vivo" both by evaluating the volume reduction of gastric juice, and by measuring the total acidity of same after administration of the substances under test according to the Takeda method (see the aforementioned literature).
To this end, tests have been made on male Wistar rats of an average weight of 200 g. The animals, 10 for each substance, were placed into individual cages provided with ground grating in order to avoid coprophagy, without food but with free access to water for 24 hours before test. […] Four hours later the animals were sacrificed and the gastric juice was collected, of which the volume expressed in ml and the total acidity expressed in mEq was measured. The gastric juice ([…] ) was titrated with 0.1N NaOH to pH 7 to determine the acid concentration. The total acidity was then calculated as the product of the total volume of gastric juice by the acid concentration.

[3] = in vivo; details: po
Text: The animals were kept under observation by checking mortality and possible pain signs for 15 days from start of test.

T1 sequence (P47747 whole entry): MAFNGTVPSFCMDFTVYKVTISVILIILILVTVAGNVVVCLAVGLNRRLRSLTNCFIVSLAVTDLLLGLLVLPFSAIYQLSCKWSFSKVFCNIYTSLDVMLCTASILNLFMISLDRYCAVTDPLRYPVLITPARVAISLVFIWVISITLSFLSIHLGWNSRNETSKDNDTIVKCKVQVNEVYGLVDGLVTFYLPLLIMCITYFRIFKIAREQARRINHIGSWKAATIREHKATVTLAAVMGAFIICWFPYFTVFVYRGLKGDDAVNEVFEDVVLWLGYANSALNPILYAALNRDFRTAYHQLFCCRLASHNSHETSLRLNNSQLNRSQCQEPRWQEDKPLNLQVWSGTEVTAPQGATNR

## CN(C)Cc1ccc(CSCCNc2nc(-c3ccc4ccccc4c3)cs2)o1 [Example No. 6, 2-(2-(((5-(dimethylamino)methyl-2-furanyl)methyl)thio)ethyl)-amino-4-(2-naphthyl)-thiazole]
[1]; histamine 1·10^-5 M/L
  inhibition at 10 µM: 90%
  inhibition at 1 µM: 40%
  inhibition at 0.1 µM: 35%
  inhibition at 0.01 µM: 15%
[1]; histamine 1·10^-6 M/L
  inhibition at 10 µM: 100%
  inhibition at 1 µM: 90%
  inhibition at 0.1 µM: 70%
  inhibition at 0.01 µM: 70%
[1]; histamine 2,5·10^-7 M/L
  inhibition at 10 µM: 100%
  inhibition at 1 µM: 100%
  inhibition at 0.1 µM: 95%
  inhibition at 0.01 µM: 95%
[1]; histamine 5·10^-6 M/L
  inhibition at 10 µM: 90%
  inhibition at 1 µM: 70%
  inhibition at 0.1 µM: 50%
  inhibition at 0.01 µM: 50%
[1]; histamine 5·10^-7 M/L
  inhibition at 10 µM: 100%
  inhibition at 1 µM: 100%
  inhibition at 0.1 µM: 95%
  inhibition at 0.01 µM: 85%
[1]; in vitro
  antagonistic action to the histamine H2 receptors (in words): interesting ability
[2]; 6 hours before pilorus tieing
  Total acidity gastric juice secretion: 0,05 mEq/4 hours
  Volume gastric juice secretion: 3,0 ml/4 hours
[2]; 12 hours before pilorus tieing
  Total acidity gastric juice secretion: 0,04 mEq/4 hours
  Volume gastric juice secretion: 2,9 ml/4 hours
[2]; 24 hours before pilorus tieing
  Total acidity gastric juice secretion: 0,12 mEq/4 hours
  Volume gastric juice secretion: 4,5 ml/4 hours
[2]; 36 hours before pilorus tieing
  Total acidity gastric juice secretion: 0,12 mEq/4 hours
  Volume gastric juice secretion: 5,0 ml/4 hours
[2]; Rattus norvegicus, po, 6 hours before pilorus tieing, read-out: Total acidity gastric juice secretion, Variation %
  change in vivo at 20 mg/kg: -70%
[2]; Rattus norvegicus, po, 6 hours before pilorus tieing, read-out: Volume gastric juice secretion, Variation %
  change in vivo at 20 mg/kg: -43%
[2]; Rattus norvegicus, po, 12 hours before pilorus tieing, read-out: Total acidity gastric juice secretion, Variation %
  change in vivo at 20 mg/kg: -73%
[2]; Rattus norvegicus, po, 12 hours before pilorus tieing, read-out: Volume gastric juice secretion, Variation %
  change in vivo at 20 mg/kg: -37%
[2]; Rattus norvegicus, po, 24 hours before pilorus tieing, read-out: Total acidity gastric juice secretion, Variation %
  change in vivo at 20 mg/kg: -29%
[2]; Rattus norvegicus, po, 24 hours before pilorus tieing, read-out: Volume gastric juice secretion, Variation %
  change in vivo at 20 mg/kg: -20%
[2]; Rattus norvegicus, po, 36 hours before pilorus tieing, read-out: Total acidity gastric juice secretion, Variation %
  change in vivo at 20 mg/kg: -25%
[2]; Rattus norvegicus, po, 36 hours before pilorus tieing, read-out: Volume gastric juice secretion, Variation %
  change in vivo at 20 mg/kg: -11%
[2]; Rattus norvegicus, po, per os, 1 hour before pilorus tieing, read-out: DE50 in rat calculated on total acidity (mEq/4 hours)
  ED50: 1.8 mg/kg
[2]; volume and total acidity of gastric juice
  ability to reduce the gastric acid secretion (in words): interesting ability
[3]; mouse
  LD50 at 360 h: 2100 mg/kg
[3]; rat
  LD50: 2800 mg/kg
